Data set [1] deals with CYP2C9 (Homo sapiens, UniProt P11712). Nature of the data set: Recombinant isozyme kinetic assay.
In data set [2] the target is T1, CYP2C8 (Homo sapiens, UniProt P10632).
T1 sequence (P10632 1-490): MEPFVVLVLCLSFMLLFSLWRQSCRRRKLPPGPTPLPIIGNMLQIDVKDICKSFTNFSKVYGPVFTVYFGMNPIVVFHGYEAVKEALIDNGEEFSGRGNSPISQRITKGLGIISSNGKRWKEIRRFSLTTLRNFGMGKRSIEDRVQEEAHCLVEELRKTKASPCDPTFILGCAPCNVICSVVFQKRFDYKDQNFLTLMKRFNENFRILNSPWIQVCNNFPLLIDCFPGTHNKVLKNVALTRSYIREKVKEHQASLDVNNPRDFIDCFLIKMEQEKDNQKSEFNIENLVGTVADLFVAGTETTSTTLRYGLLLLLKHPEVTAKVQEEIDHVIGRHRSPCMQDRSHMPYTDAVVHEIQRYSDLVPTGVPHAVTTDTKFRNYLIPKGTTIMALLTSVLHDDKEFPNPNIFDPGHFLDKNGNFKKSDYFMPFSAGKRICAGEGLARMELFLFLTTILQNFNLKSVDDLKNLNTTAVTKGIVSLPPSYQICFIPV
Nature of the data set: Recombinant isozyme kinetic assay.

For data set [3], the target named is T2, CYP2D6 (Homo sapiens, UniProt P10635).
Data set [4] has as its target T3, CYP1A2 (Homo sapiens, UniProt P05177).
T3 sequence (P05177 1-516): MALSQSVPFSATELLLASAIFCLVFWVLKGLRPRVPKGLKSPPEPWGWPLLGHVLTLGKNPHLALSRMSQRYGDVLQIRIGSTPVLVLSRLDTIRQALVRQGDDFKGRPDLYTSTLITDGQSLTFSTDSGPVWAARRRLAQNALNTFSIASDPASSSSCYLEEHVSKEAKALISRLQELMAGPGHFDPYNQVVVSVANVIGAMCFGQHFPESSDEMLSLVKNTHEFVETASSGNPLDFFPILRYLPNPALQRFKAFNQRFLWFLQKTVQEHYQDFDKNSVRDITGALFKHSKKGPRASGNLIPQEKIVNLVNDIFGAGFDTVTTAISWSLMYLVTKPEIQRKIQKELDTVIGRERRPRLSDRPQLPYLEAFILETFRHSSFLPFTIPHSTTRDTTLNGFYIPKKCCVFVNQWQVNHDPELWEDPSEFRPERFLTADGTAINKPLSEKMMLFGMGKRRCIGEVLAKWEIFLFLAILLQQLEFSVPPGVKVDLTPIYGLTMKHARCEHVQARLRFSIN
Nature of the data set: Recombinant isozyme kinetic assay. Conditions: substrate desmethyl-terbinafine.

The target in data set [5] is T4, CYP2B6 (Homo sapiens, UniProt P20813).
T4 sequence (P20813 1-491): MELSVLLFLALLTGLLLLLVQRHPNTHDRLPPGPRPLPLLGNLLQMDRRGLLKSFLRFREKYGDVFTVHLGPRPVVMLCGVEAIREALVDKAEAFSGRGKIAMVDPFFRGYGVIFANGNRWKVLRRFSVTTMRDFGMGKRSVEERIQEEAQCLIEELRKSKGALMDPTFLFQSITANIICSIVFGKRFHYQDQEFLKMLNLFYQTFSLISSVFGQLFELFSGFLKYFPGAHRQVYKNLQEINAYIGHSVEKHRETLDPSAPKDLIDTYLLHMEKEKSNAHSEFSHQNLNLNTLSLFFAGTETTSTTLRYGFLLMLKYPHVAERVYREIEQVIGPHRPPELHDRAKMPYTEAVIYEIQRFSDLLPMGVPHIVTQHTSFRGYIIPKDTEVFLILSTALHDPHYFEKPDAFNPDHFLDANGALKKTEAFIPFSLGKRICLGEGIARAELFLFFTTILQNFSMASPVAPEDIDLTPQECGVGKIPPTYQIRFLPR
Briefly: Recombinant isozyme kinetic assay.

Data set [6] addresses CYP2E1 (Homo sapiens, UniProt P05181). Nature of the data set: Recombinant isozyme kinetic experiments, CYP2E1. In kind it is in vitro ADME.
The conditions of data set [7]: ref Vago et al., 1994, Kovarik et al., 1995; cited from earlier work.
In data set [8] the target is T5, CYP2A6 (Homo sapiens, UniProt P11509).
T5 sequence (P11509 1-494): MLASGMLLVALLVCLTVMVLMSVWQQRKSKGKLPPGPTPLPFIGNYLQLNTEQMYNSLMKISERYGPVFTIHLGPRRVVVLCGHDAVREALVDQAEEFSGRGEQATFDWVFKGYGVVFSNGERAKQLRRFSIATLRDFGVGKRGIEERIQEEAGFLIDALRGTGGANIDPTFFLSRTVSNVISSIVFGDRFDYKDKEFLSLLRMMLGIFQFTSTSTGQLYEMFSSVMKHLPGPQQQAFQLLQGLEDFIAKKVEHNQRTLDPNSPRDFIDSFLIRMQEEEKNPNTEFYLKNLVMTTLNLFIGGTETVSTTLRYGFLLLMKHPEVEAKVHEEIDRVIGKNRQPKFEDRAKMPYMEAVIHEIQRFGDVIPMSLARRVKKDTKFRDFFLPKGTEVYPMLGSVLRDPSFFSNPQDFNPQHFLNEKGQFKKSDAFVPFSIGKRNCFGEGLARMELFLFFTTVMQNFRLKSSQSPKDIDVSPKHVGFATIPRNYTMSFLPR
Nature of the data set: Recombinant isozyme kinetic assay. In kind it is in vitro ADME.

Data set [9] deals with T2, CYP2D6. Briefly: Recombinant isozyme kinetic assay. Conditions: Pathway 1 Step 1, substrate terbinafine.
Data set [10] has as its system CYP3A4. Conditions: substrate terbinafine, ref Davis et al. (2019); cited from earlier work.
Data set [11] has as its system CYP2C9 and 3A4. Nature of the data set: In vitro to in vivo scaling of P450 kinetics, CYP2C9 and 3A4 combined. Conditions: scaled to average protein concentrations in human liver microsomes. (In general: Liver microsomes are a subcellular fraction often used to study metabolism.)
Data set [12] concerns CYP2C19. The settings on record: substrate terbinafine, ref Davis et al. (2019); cited from earlier work.
For data set [13] the following is noted: ref Terbianfine Product Monograph, Canada, 1995; cited from earlier work.
Setting [14] is: CYP2C9, Step 2.2b, substrate desmethyl-terbinafine.
Where [15] appears, read: Step 2.2b, substrate desmethyl-terbinafine.
[16] abbreviates: substrate desmethyl-terbinafine, normalized MS peak area, scaled x10^6.

Here are results for two compounds from article PMC6905088 (Biochemical pharmacology, 2019).

Usually Km stands for the substrate concentration at which the rate is half of its maximum.

Molecules are shown by their SMILES. Entries after “also recorded” stand apart in the source; their conditions may differ. A value given as a limit tells only on which side of the number the result lay.

Sequence of CYP2C9 (P11712 whole entry): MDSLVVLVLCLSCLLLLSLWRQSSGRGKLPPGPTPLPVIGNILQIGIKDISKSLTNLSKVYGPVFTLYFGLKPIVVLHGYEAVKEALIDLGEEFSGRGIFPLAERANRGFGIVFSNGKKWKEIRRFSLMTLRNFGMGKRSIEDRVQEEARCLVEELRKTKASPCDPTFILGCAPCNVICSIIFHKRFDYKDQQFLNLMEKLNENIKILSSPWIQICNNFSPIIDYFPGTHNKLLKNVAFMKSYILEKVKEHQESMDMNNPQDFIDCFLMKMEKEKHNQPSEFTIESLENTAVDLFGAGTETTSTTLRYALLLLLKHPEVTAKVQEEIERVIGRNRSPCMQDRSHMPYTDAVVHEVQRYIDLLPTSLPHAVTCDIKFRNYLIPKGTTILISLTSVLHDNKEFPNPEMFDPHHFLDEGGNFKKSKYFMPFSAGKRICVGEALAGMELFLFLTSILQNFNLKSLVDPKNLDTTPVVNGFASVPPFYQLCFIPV
T2 sequence (P10635 whole entry): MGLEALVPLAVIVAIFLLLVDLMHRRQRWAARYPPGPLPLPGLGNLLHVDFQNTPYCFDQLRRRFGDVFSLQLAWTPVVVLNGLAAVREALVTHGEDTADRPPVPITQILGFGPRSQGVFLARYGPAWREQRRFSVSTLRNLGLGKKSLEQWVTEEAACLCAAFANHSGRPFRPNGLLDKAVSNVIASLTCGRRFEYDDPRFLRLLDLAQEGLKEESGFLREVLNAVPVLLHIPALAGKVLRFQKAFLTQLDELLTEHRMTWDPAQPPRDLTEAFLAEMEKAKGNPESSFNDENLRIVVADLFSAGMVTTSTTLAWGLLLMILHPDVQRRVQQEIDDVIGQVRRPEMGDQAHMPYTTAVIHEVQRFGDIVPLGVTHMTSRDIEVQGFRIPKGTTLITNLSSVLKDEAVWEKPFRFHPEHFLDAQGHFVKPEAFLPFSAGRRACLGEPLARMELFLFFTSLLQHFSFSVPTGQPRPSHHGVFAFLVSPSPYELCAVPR
Sequence of CYP2E1 (P05181 whole entry): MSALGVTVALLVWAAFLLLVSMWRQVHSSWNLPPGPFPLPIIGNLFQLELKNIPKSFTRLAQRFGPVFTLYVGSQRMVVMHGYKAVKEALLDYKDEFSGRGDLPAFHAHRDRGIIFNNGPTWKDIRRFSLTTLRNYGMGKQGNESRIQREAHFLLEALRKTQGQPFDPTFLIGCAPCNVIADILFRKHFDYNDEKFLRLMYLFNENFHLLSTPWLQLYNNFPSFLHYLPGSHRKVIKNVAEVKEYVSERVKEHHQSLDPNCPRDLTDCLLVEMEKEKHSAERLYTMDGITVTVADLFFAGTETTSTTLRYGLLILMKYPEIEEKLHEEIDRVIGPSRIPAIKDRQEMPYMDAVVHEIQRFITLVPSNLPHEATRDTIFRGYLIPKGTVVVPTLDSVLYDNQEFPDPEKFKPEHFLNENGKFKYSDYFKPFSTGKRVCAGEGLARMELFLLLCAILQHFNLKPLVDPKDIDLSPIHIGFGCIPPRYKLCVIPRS

For the compound `CC(C)(C)C#C/C=C/CNCc1cccc2ccccc12.Cl` [desmethyl-terbinafine, N-desmethyl-terbinafine hydrochloride], the “Vmax, 1-naphthyl-methylamine formation” value came to 330 ± 41 pmol/min/nmol protein in data set [1] (CYP2C9, Step 2.2a, substrate desmethyl-terbinafine) and 85 ± 6.5 pmol/min/nmol protein in data set [2] (Step 2.2a, substrate desmethyl-terbinafine). Also, the “6,6-dimethyl-2-hepten-4-yn-1-amine formation (steady-state kinetic constants)” value in [1] (setting [14]), in data set [2] (setting [15]) and in [5] (setting [15]) was “undetected” throughout. Moreover, the “Vmax, 1-naphthaldehyde formation” value was determined as 69 ± 4.4 pmol/min/nmol protein in data set [1] (setting [14]) and 300 ± 28 pmol/min/nmol protein in data set [2] (setting [15]). In addition, the “desmethyl hydroxyterbinafine formation (kinetic constants)” value in [1] (CYP2C9, substrate desmethyl-terbinafine) is recorded as “undetected”; in data set [3], “undetected”; in data set [4], “undetected”. Moreover, the “Vmax, desmethyl-terbinafine dihydrodiol formation” value in data set [1] (CYP2C9, substrate desmethyl-terbinafine, normalized MS peak area, scaled x10^6) came out at 2.0 ± 0.07 μV*sec/min/nmol; in [5] (setting [16]), 0.59 ± 0.13 μV*sec/min/nmol. Moreover, in data set [1] (substrate desmethylterbinafine), the “fold higher efficiency of dihydrodiol formation by CYP2C9 vs CYP2B6” value is 50 fold. The “desmethyl-terbinafine dihydrodiol formation (kinetic constants)” value in [2] (substrate desmethyl-terbinafine) and in data set [4] was “undetected” each time. For the same compound, the “Vmax, desmethyl hydroxyterbinafine formation” value in [2] (setting [16]) was 0.61 ± 0.04 μV*sec/min/nmol; in data set [5] (substrate desmethyl-terbinafine, no saturation), “linear”.

`CN(C/C=C/C#CC(C)(C)C)Cc1cccc2ccccc12` [terbinafine]: the “hydroxyterbinafine formation (kinetic constants)” value in data set [1] (CYP2C9, substrate terbinafine) is recorded as “undetected”; in data set [2] (substrate terbinafine) it was “undetected”. Besides, the “role in terbinafine metabolism” value in [6] is on record as “no role”. Further, the “reported plasma terbinafine and metabolite levels” value in [7] is at most 3 µM. For the same compound, the “metabolite formation / role in terbinafine metabolism” value in data set [8] is listed as “not able to generate metabolites; also recorded: no role”. In addition, the “TBF-A formation (steady-state kinetic constants)” value in [9] is recorded as “undetected”; in data set [5] (Pathway 1 Step 1, substrate terbinafine), “undetected”. Also, the “terbinafine dihydrodiol formation (kinetic constants)” value in [2] (substrate terbinafine) is on record as “undetected”. The figures for the “Hill slope (n), hydroxyterbinafine formation” value in [10] and in [12] were 1.30 ± 0.16 and 1.40 ± 0.11, respectively. The “Hill slope (n), terbinafine dihydrodiol formation” value in data set [10] is given as 2.0 ± 0.32; in data set [12], 0.58 ± 0.08. The “combined contribution of CYP2C9 and 3A4 to every metabolic step” value in data set [11] is “over 60%”. Besides, the Km at 30 min in data set [5] (human, recombinant CYP2B6 Supersomes, pH 7.4, Km or S50, hydroxyterbinafine formation, substrate terbinafine) came to 300 ± 100 µM. The “risk of idiosyncratic liver toxicity, one in N patients” value in [13] was 45,000–54,000.
